For test [1], the target named is T1, human TRPV1 (Homo sapiens (Human), UniProt Q8NER1). The test is described as follows: Capsaicin Activation Assay (intracellular Ca2+, FLIPR). Type of test: cell-based. Conditions: recombinant HEK293 cells expressing hTRPV1, 50 nM capsaicin. As for the experimental part:
(Logan, Utah). Dulbecco's phosphate-buffered saline (D-PBS) (with 1 mg/mL glucose and 3.6 mg/l Na pyruvate, without phenol red), L-glutamine, hygromycin B, and Lipofectamine® were obtained from Life Technologies (Grand Island, N.Y.). G418 sulfate was obtained from Calbiochem-Novabiochem Corp. (San Diego, Calif.). […] (St. Louis, Mo.). […] The cDNA for human TRPV1 (hTRPV1) was isolated by reverse transcriptase-polymerase chain reaction (RT-PCR) from human small intestine poly A+ RNA supplied by Clontech (Palo Alto, Calif.) using primers designed surrounding the initiation and termination codons identical to the published sequences (Hayes et al. […] The resulting cDNA PCR products were subcloned into pCIneo mammalian expression vector (Promega) and fully sequenced using fluorescent dye-terminator reagents (Prism, PerkinElmer Applied Biosystems Division) and a PerkinElmer Applied Biosystems Model 373 DNA sequencer or Model 310 genetic analyzer. Expression plasmids encoding the hTRPV1 cDNA were transfected into HEK293 cells using Lipofectamine®. Forty-eight hours after transfection, the neomycin-resistant cells were selected with growth medium containing 800 μg/mL Geneticin (Life Technologies, formerly Gibco BRL). Surviving individual colonies were isolated and screened for TRPV1 activity. […] Compound stocks, 10 mM, were prepared in DMSO, and diluted serially across a 384-well plate using a Bravo BenchCel workstation (Agilent Technologies, Santa Clara, Calif.). […] On the day prior to the experiment, the recombinant HEK293 cells expressing human TRPV1 (hTRPV1) were removed from tissue culture flasks and plated in growth medium into black-walled clear-bottom 384-well Biocoat™ poly-D-lysine assay plates (BD Biosciences, Bedford, Mass.) using a Multidrop® dispenser (ThermoScientific, Waltham, Mass.). […] Molecular Devices, Sunnyvale, Calif.) was added to each well using the Multidrop® dispenser. […] Fluorescence readings were made at 1 to 5 second intervals over the course of the experimental run.

The target of test [2] is T1, human TRPV1. The test is described as follows: Acid Activation Assay (pH 5.0, intracellular Ca2+, FLIPR). Type of test: cell-based. The note with it: percentage of the maximal pH 5.0-induced response remaining; recombinant HEK293 hTRPV1 cells; maximum concentration tested 37.5 μM. As for the experimental part: Dulbecco's modified Eagle's medium (DMEM) with 4.5 m g/mL D-glucose, fetal bovine serum, L-glutamine, and 2-morpholinoethanesulfonic acid (MES) were purchased from Sigma-Aldrich Co. (St. Louis, Mo.). Dulbecco's phosphate-buffered saline (DPBS) with Ca^2+, Mg^2+, and 1 mg/mL D-glucose (pH 7.4), Geneticin®, 0.25% trypsin-1 mM EDTA, and penicillin-streptomycin were purchased from Invitrogen Corp. (Carlsbad, Calif.). The FLIPR® Calcium 4 assay kit was purchased from Molecular Devices (Sunnyvale, Calif.).
The cDNA for human TRPV1 (hTRPV1) was isolated by reverse transcriptase-polymerase chain reaction (RT-PCR) from human small intestine poly A+ RNA supplied by Clontech (Palo Alto, Calif.) using primers designed surrounding the initiation and termination codons identical to the published sequences (Hayes et al. Pain 2000, 88, 205-215). The resulting cDNA PCR products were subcloned into pCIneo mammalian expression vector (Promega) and fully sequenced using fluorescent dye-terminator reagents (Prism, PerkinElmer Applied Biosystems Division) and a PerkinElmer Applied Biosystems Model 373 DNA sequencer or Model 310 genetic analyzer. Expression plasmids encoding the hTRPV1 cDNA were transfected into HEK293 cells using Lipofectamine®. Forty-eight hours after transfection, the neomycin-resistant cells were selected with growth medium containing 800 μg/mL Geneticin (Life Technologies, formerly Gibco BRL). Surviving individual colonies were isolated and screened for TRPV1 activity. Cells expressing recombinant TRPV1 were maintained at 37° C. in DMEM containing 4 mM L-glutamine, 300 μg/mL G418 (Calbiochem) and 10% fetal bovine serum under a humidified 5% CO2 atmosphere.
The functional activity of compounds at the TRPV1 receptor was determined by measurement of intracellular Ca^2+ levels ([Ca^2+]i) using the Fluorescence Imaging Plate Reader (FLIPR)TETRA®. All compounds were tested over a 12-point one-half-log concentration range with 37.5 μM being the maximum concentration tested. Compound stocks, 10 mM, were prepared in DMSO, and diluted serially across a 384-well plate using a Bravo BenchCel workstation (Agilent Technologies, Santa Clara, Calif.). On the day prior to the experiment, the recombinant HEK293 cells expressing human TRPV1 (hTRPV1) were removed from tissue culture flasks and plated in growth medium into black-walled clear-bottom 384-well Biocoat™ poly-D-lysine assay plates (BD Biosciences, Bedford, Mass.) using a Multidrop® dispenser (ThermoScientific, Waltham, Mass.). On the day of the experiment growth medium was removed, and the no-wash FLIPR® Calcium-4 dye (λEX=470-495 nm, λEM=515-575 nm) was added to each well using the Multidrop® dispenser. The plated cells were incubated for 90-120 min in the dark at 25° C. The test compounds dissolved in DMSO were then added to the plates using an Agilent Bravo workstation (Agilent Technologies Inc., Santa Clara, Calif.). Three minutes later, a pH 5.0 solution was added to each well. Reagents were delivered at a rate of 40 μL/sec, and the final assay volume was 80 μL. Acidic pH solutions were prepared by titration of DPBS/MES with 1 N HCl. The intensity of the fluorescence was captured and digitally transferred to an interfaced PC. The maximum peak measured for the concentration range tested was used to calculate the corresponding peak increase in fluorescence over baseline (relative fluorescence units) which was expressed as the percentage (max % remain) of the maximal pH 5.0-induced response.
Table 1 reports the percentage (max % remain) of the maximal pH 5.0-induced response measured for the compounds tested in the recombinant HEK293 cell assay. Most of the compounds tested inhibited calcium flux only partially following TRPV1 activation by the pH 5.0 solution.

The structures appear in SMILES notation.

T1 sequence (Q8NER1 whole entry): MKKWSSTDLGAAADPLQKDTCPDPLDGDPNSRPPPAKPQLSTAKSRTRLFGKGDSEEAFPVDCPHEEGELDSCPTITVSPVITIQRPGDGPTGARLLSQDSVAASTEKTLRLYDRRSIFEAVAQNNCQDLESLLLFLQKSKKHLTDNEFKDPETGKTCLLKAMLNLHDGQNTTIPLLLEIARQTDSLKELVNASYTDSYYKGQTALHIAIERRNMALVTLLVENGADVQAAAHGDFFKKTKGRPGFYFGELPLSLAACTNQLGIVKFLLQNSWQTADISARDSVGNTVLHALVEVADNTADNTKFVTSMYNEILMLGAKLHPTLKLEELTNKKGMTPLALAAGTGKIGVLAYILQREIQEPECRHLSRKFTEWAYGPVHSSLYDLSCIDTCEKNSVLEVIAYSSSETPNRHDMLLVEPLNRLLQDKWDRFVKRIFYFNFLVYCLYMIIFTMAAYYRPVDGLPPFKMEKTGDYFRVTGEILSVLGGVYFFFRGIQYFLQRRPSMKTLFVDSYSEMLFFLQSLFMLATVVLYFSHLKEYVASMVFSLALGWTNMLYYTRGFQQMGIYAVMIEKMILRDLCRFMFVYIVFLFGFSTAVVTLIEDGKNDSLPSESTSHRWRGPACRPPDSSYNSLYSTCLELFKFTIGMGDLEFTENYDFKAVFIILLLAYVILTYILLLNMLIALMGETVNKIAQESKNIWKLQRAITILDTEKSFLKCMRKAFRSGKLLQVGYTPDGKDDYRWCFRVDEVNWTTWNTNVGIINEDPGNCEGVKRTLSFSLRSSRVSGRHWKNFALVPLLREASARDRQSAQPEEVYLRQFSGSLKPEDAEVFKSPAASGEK

By IC50 is commonly meant the point on the concentration scale where inhibition reaches its midpoint. With `CN1C(=O)NCc2c(NC(=O)N[C@@H]3C[C@](C)(C(F)F)Oc4ccccc43)cccc21` [Example 12, 1-[(2R,4R)-2-(difluoromethyl)-2-methyl-3,4-dihydro-2H-chromen-4-yl]-3-(1-methyl-2-oxo-1,2,3,4-tetrahydroquinazolin-5-yl)urea], in test [1], the half-inhibitory concentration (IC50) came to 32 nM. For the same molecule, in test [2], the “human TRPV1 H^+ (max % remain)” value came out at 28%.
Take `CN1C(=O)NCc2c(NC(=O)N[C@@H]3C[C@@](C)(CF)Oc4cc(Cl)ccc43)cccc21` [Example 14, 1-[(2S,4R)-7-chloro-2-(fluoromethyl)-2-methyl-3,4-dihydro-2H-chromen-4-yl]-3-(1-methyl-2-oxo-1,2,3,4-tetrahydroquinazolin-5-yl)urea]: in test [1], the 50% inhibitory concentration (IC50) worked out at 63 nM. Further, in test [2], the “human TRPV1 H^+ (max % remain)” value turned out to be 23%.
Take `CN1C(=O)NCc2c(NC(=O)N[C@@H]3CC4(CCCC4)Oc4ccccc43)cccc21` [Example 15, 1-[(4R)-3,4-dihydrospiro[chromene-2,1′-cyclopentan]-4-yl]-3-(1-methyl-2-oxo-1,2,3,4-tetrahydroquinazolin-5-yl)urea]: in test [1], the 50% inhibitory concentration (IC50) turned out to be 21 nM. Also, the “human TRPV1 H^+ (max % remain)” value in test [2] was determined as 40%.
Taken in the same sequence, the figures for `CN1Cc2ccc(NC(=O)N[C@@H]3CC(C)(C)Oc4c3cccc4C(F)(F)F)cc2NC1=O` [Example 16, 1-[(4R)-2,2-dimethyl-8-(trifluoromethyl)-3,4-dihydro-2H-chromen-4-yl]-3-(3-methyl-2-oxo-1,2,3,4-tetrahydroquinazolin-7-yl)urea] were 100 nM and 53%.
For `Cn1c(=O)ccc2c(NC(=O)N[C@@H]3CC(CF)(CF)Oc4cc(Cl)ccc43)cccc21` [Example 20, 1-[(4R)-7-chloro-2,2-bis(fluoromethyl)-3,4-dihydro-2H-chromen-4-yl]-3-(1-methyl-2-oxo-1,2-dihydroquinolin-5-yl)urea], the half-inhibitory concentration (IC50) in test [1] came to 58 nM. Besides, in test [2], the “human TRPV1 H^+ (max % remain)” value is given as 34%.
Consider `Cn1c(=O)ccc2c(NC(=O)N[C@@H]3CC(CF)(CF)Oc4c3ccc(Cl)c4F)cccc21` [Example 21, 1-[(4R)-7-chloro-8-fluoro-2,2-bis(fluoromethyl)-3,4-dihydro-2H-chromen-4-yl]-3-(1-methyl-2-oxo-1,2-dihydroquinolin-5-yl)urea], for which, in test [1], the IC50 was 26 nM. Further, the “human TRPV1 H^+ (max % remain)” value in test [2] was 48%.
Turning to `Cn1c(=O)ccc2c(NC(=O)N[C@@H]3CC(C)(C)Oc4c3ccc(F)c4Cl)cccc21` [Example 22, 1-[(4R)-8-chloro-7-fluoro-2,2-dimethyl-3,4-dihydro-2H-chromen-4-yl]-3-(1-methyl-2-oxo-1,2-dihydroquinolin-5-yl)urea], the half-maximal inhibitory concentration (IC50) in test [1] was determined as 15 nM. The “human TRPV1 H^+ (max % remain)” value in test [2] turned out to be 47%.
For `Cn1c(=O)ccc2c(NC(=O)N[C@@H]3CC(C)(C)Oc4cc(Cl)ccc43)cccc21` [Example 23, 1-[(4R)-7-chloro-2,2-dimethyl-3,4-dihydro-2H-chromen-4-yl]-3-(1-methyl-2-oxo-1,2-dihydroquinolin-5-yl)urea], in test [1], the IC50 was found to be 16 nM. Moreover, the “human TRPV1 H^+ (max % remain)” value in test [2] stood at 50%.
Taken in the same sequence, the figures for `Cn1c(=O)ccc2c(NC(=O)N[C@@H]3C[C@@](C)(C(F)(F)F)Oc4ccccc43)cccc21` [Example 25, 1-(1-methyl-2-oxo-1,2-dihydroquinolin-5-yl)-3-[(2S,4R)-2-methyl-2-(trifluoromethyl)-3,4-dihydro-2H-chromen-4-yl]urea] were 18 nM and 65%.
The like results for `Cn1c(=O)ccc2c(NC(=O)N[C@@H]3C[C@@](C)(C(F)F)Oc4ccccc43)cccc21` [Example 26, 1-[(2S,4R)-2-(difluoromethyl)-2-methyl-3,4-dihydro-2H-chromen-4-yl]-3-(1-methyl-2-oxo-1,2-dihydroquinolin-5-yl)urea] were, in that order, 25 nM and 54%.

For the origin of these results see patent publication US8969325B2, “TRPV1 antagonists” (AbbVie Inc., priority 2011, dated 2015).
